US20230399341A1, “7-PHENYL SUBSTITUTED 2-AMINOQUINAZOLINE INHIBITORS OF HPK1” (MERCK SHARP & DOHME LLC, priority 2020, published 2023)

target: T1, Human HPK1, catalytic domain (Homo sapiens, UniProt Q92918); test: HPK1-SLP76 TR-FRET Assay; format: biochemical; conditions: 75 pM HPK1, ATP 10 uM, SLP76 10 nM, 30 min pre-incubation, 60 min reaction
T1 sequence (Q92918 1-346): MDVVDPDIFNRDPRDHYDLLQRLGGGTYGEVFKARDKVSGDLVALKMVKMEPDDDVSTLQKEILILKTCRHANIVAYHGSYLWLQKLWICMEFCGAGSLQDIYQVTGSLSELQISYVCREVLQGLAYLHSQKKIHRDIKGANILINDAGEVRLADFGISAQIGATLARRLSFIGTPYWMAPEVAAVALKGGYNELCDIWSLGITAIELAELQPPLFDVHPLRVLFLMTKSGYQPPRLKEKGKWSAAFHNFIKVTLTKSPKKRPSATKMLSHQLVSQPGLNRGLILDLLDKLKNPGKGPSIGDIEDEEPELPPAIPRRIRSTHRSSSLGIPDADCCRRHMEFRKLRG

| IC50 [nM] | SMILES |
| --- | --- |
| 33.9 | COc1cc2c(cc1Nc1ncc3ccc(-c4cccc(C(=O)NC5CC5)c4)cc3n1)CNCC2 [Compound 1-67, N-cyclopropyl-3-{2-[(6-methoxy-1,2,3,4-tetrahydroisoquinolin-7-yl)amino]quinazolin-7-yl}benzamide] |
| 11.4 | Cc1ccc(F)cc1-c1cc2nc(Nc3ccc4c(c3)CN(C)CC4)ncc2c(N)c1F [Compound 2-174, 6-fluoro-7-(5-fluoro-2-methylphenyl)-N~2~-(2-methyl-1,2,3,4-tetrahydroisoquinolin-7-yl)quinazoline-2,5-diamine] |
| 70.5 | Cc1c(-c2c(F)c(N)c3cnc(Nc4ccc(CC(C)(C)O)cc4)nc3c2Cl)cnc2c1NCCO2 [Compound 2-167, 1-(4-{[5-amino-8-chloro-6-fluoro-7-(8-methyl-2,3-dihydro-1H-pyrido[2,3-b][1,4]oxazin-7-yl)quinazolin-2-yl]amino}phenyl)-2-methylpropan-2-ol] |
| 0.782 | Cc1c(-c2cc3nc(Nc4cc5c(cc4Cl)CCN(C)C5)ncc3c(N)c2F)cnc2c1NCCO2 [Compound 2-64, N~2~-(6-chloro-2-methyl-1,2,3,4-tetrahydroisoquinolin-7-yl)-6-fluoro-7-(8-methyl-2,3-dihydro-1H-pyrido[2,3-b][1,4]oxazin-7-yl)quinazoline-2,5-diamine] |
| 771 | COc1cc2c(cc1Nc1ncc3ccc(N4CCC[C@H](N5CCOC5=O)C4)cc3n1)CN(C)CC2 [Compound 3-50, 3-[(3S)-1-{2-[(6-methoxy-2-methyl-1,2,3,4-tetrahydroiso-quinolin-7-yl)amino]quinazolin-7-yl}piperidin-3-yl]-1,3-oxazol-idin-2-one] |
| 4.67 | COc1cc2c(cc1Nc1ncc3ccc(OCc4ccc5c(c4)CNC5)cc3n1)CN(C)CC2 [Compound 4-2, 7-[(2,3-dihydro-1H-iso-indol-5-yl)methoxy]-N-(6-methoxy-2-methyl-1,2,3,4-tetrahydroisoquinolin-7-yl)-quinazolin-2-amine] |
| 393 | COc1cc2c(cc1Nc1ncc3ccc(-c4cc(C#N)ccc4F)cc3n1)CNCC2 [Compound 1-90, 4-fluoro-3-{2-[(6-methoxy-1,2,3,4-tetrahydroisoquinolin-7-yl)amino]quinazolin-7-yl}benzonitrile] |
| 0.249 | COc1cc2c(cc1Nc1ncc3c(N)c(F)c(-c4cncc(N)c4C)cc3n1)CN(C)CC2 [Compound 2-1, 7-(5-amino-4-methylpyridin-3-yl)-6-fluoro-N~2~-(6-methoxy-2-methyl-1,2,3,4-tetrahydroisoquinolin-7-yl)quinazoline-2,5-diamine] |
| 88.5 | COc1cc2c(cc1Nc1ncc3ccc(-c4cccc5nc(N)[nH]c45)cc3n1)CNCC2 [Compound 1-73] |
| 0.0508 | CNC(=O)c1ccc(Nc2ncc3c(N)c(F)c(-c4cnc5c(c4C)NCCO5)cc3n2)cc1 [Compound 2-23, 4-{[5-amino-6-fluoro-7-(8-methyl-2,3-dihydro-1H-pyrido[2,3-b][1,4]oxazin-7-yl)quinazolin-2-yl]amino}-N-methylbenzamide] |
| 73.1 | COc1cc2c(cc1Nc1ncc3ccc(NCC4CCS(=O)(=O)C4)cc3n1)CN(C)CC2 (racemic) [Compound 3-37, (S and R)-3-1({2-[(6-methoxy-2-methyl-1,2,3,4-tetrahydroiso-quinolin-7-yl)amino]quinazolin-7-yl}amino)methyl]-1lambda~ 6~-thiolane-1,1-dione] |
| 100 | Cc1c(-c2c(F)c(N)c3cnc(Nc4ccc(CS(=O)(=O)C5CC5)cc4)nc3c2Cl)cnc2c1NCCO2 [Compound 2-137, 8-chloro-N2-(4-((cyclopropylsulfonyl)methyl)phenyl)-6-fluoro-7-(8-methyl-2,3-dihydro-1H-pyrido[2,3-b][1,4]oxazin-7-yl)quinazoline-2,5-diamine] |
| 29.4 | COc1cc2c(cc1Nc1ncc3ccc(Nc4cccc(CO)c4)cc3n1)CN(C)CC2 [Compound 3-31, [3-({2-[(6-methoxy-2-methyl-1,2,3,4-tetrahydroisoquinolin-7-yl)amino]quinazolin-7-yl}-amino)phenyl]methanol] |
| 0.325 | COc1cc2c(cc1Nc1ncc3c(N)c(F)c(-c4cnc5c(c4C)NCCO5)cc3n1)CN(C)CC2(C)C [Compound 2-75, 6-fluoro-N~2~-(6-methoxy-2,4,4-trimethyl-1,2,3,4-tetrahydroisoquinolin-7-yl)-7-(8-methyl-2,3-dihydro-1H-pyrido[2,3-b][1,4]oxazin-7-yl)quinazoline-2,5-diamine] |
| 0.0507 | Cc1c(-c2cc3nc(Nc4cc5c(cc4F)CCN(C(C)C)C5)ncc3c(N)c2F)cnc2c1NCCO2 [Compound 2-171, 6-fluoro-N~2~-[6-fluoro-2-(propan-2-yl)-1,2,3,4-tetrahydroisoquinolin-7-yl]-7-(8-methyl-2,3-dihydro-1H-pyrido[2,3-b][1,4]oxazin-7-yl)quinazoline-2,5-diamine] |
| 0.885 | COc1cc2c(cc1Nc1ncc3ccc(-c4cncc5[nH]ccc45)cc3n1)CNCC2 [Compound 1-45, N-(6-methoxy-1,2,3,4-tetrahydroisoquinolin-7-yl)-7-(1H-pyrrolo[2,3-c]pyridin-4-yl)quinazolin-2-amine] |
| 0.0198 | Cc1c(-c2cc3nc(Nc4ccc5c(c4)CN(C)C5=O)ncc3c(N)c2F)cnc2c1NCCO2 [Compound 2-78, 5-{[5-amino-6-fluoro-7-(8-methyl-2,3-dihydro-1H-pyrido[2,3-b][1,4]oxazin-7-yl)quinazolin-2-yl]amino}-2-methyl-2,3-dihydro-1H-isoindol-1-one] |
| 234 | COc1cc2c(cc1Nc1ncc3ccc(NC4CC(OC)C4)cc3n1)CN(C)CC2 (centres unmarked) [Compound 3-51, N~7~-(3-methoxycyclobutyl)-N~2~-(6-methoxy-2-methyl-1,2,3,4-tetrahydroisoquinolin-7-yl)quinazoline-2,7-diamine] |
| 0.117 | COc1cc2c(cc1Nc1ncc3c(N)c(F)c(-c4cnc5c(c4C)NCCO5)cc3n1)CN(C(C)C)CC2 [Compound 2-72, 6-fluoro-N~2~-[6-methoxy-2-(propan-2-yl)-1,2,3,4-tetrahydroisoquinolin-7-yl]-7-(8-methyl-2,3-dihydro-1H-pyrido[2,3-b][1,4]oxazin-7-yl)quinazoline-2,5-diamine] |
| 10.8 | COc1cc2c(cc1Nc1ncc3ccc(-c4cnn(C(F)F)c4)cc3n1)CN(C)CC2 [Compound 1-26, 7-[1-(difluoromethyl)-1H-pyrazol-4-yl]-N-(6-methoxy-2-methyl-1,2,3,4-tetrahydroisoquinolin-7-yl)quinazolin-2-amine] |
| 4.17 | COc1cc2c(cc1Nc1ncc3ccc(Nc4cc(S(C)(=O)=O)ccc4F)cc3n1)CN(C)CC2 [Compound 3-36, N~7~-[2-fluoro-5-(methyl-sulfonyl)phenyl]-N~2~-(6-methoxy-2-methyl-1,2,3,4-tetra-hydroisoquinolin-7-yl)quinaz-oline-2,7-diamine] |
| 10.5 | COc1cc2c(cc1Nc1ncc3c(N)c(F)c(-c4cc5oc(=O)[nH]c5cc4C)cc3n1)CN(C)CC2 [Compound 2-49, 6-(5-amino-6-fluoro-2-((6-methoxy-2-methyl-1,2,3,4-tetrahydroisoquinolin-7-yl)amino)quinazolin-7-yl)-5-methylbenzo[d]oxazol-2(3H)-one] |
| 583 | COc1cc2c(cc1Nc1ncc3ccc(Oc4ccc(C(=O)N5CCN(C)CC5)cc4)cc3n1)CN(C)CC2 [Compound 4-6, [4-({2-[(6-methoxy-2-methyl-1,2,3,4-tetrahydro-isoquinolin-7-yl)amino]-quinazolin-7-yl}oxy)phen-yl](4-methylpiperazin-1-yl)methanone] |
| 0.669 | Cc1ncccc1Nc1ncc2c(N)c(F)c(-c3cnc4c(c3C)NCCO4)cc2n1 [Compound 2-32, 6-fluoro-7-(8-methyl-2,3-dihydro-1H-pyrido[2,3-b][1,4]oxazin-7-yl)-N~2~- (2-methylpyridin-3-yl)quinazoline-2,5-diamine] |
| 0.121 | CCS(=O)(=O)Cc1ccc(Nc2ncc3c(N)c(F)c(-c4cnc5c(c4C)NCCO5)c(Cl)c3n2)cc1 [Compound 2-140, 8-chloro-N~2~-{4-[(ethylsulfonyl)methyl]phenyl}-6-fluoro-7-(8-methyl-2,3-dihydro-1H-pyrido[2,3-b][1,4]oxazin-7-yl)quinazoline-2,5-diamine] |
| 13 | COc1cc2c(cc1Nc1ncc3ccc(Nc4ccc(C)c(S(N)(=O)=O)c4)cc3n1)CN(C)CC2 [Compound 3-44, 5-({2-[(6-methoxy-2-methyl-1,2,3,4-tetrahydroisoquinolin-7-yl)amino]quinazolin-7-yl}-amino)-2-methylbenzene-1-sulfonamide] |
| 0.0784 | COc1cc(C2CCN(C)C2=O)ccc1Nc1ncc2c(N)c(F)c(-c3cnc4c(c3C)NCCO4)cc2n1 (single isomer, unassigned) [Compound 2-54, (R or S)-3-(4-{[5-amino-6-fluoro-7-(8-methyl-2,3-dihydro-1H-pyrido[2,3-b][1,4]oxazin-7-yl)quinazolin-2-yl]amino}-3-methoxyphenyl)-1-methylpyrrolidin-2-one] |
| 79.2 | COc1cc2c(cc1Nc1ncc3ccc(-c4ccc(CN(C)C)cc4)cc3n1)CNCC2 [Compound 1-57, 7-{4-[(dimethylamino)methyl]phe-nyl}-N-(6-methoxy-1,2,3,4-tetrahydroisoquinolin-7-yl)quinazolin-2-amine] |
| 0.0811 | CC(=O)NCc1ccc(Nc2ncc3c(N)c(F)c(-c4cnc5c(c4C)NCCO5)cc3n2)cc1 [Compound 2-30, N-[(4-{[5-amino-6-fluoro-7-(8-methyl-2,3-dihydro-1H-pyrido[2,3-b][1,4]oxazin-7-yl)quinazolin-2-yl]amino}phenyl)methyl] acetamide] |
